Article PMC7177633, “Effective Cellular Transport of Ortho-Halogenated Sulfonamide Derivatives of Metformin Is Related to Improved Antiproliferative Activity and Apoptosis Induction in MCF-7 Cells” (International Journal of Molecular Sciences, 2020)
Read-outs that look alike come from different tables or passages of the source.

Tests used:
MCF-7 cells [1] = test: Cell viability WST-1 assay, MCF-7; format: cell-based; conditions: Homo sapiens, MCF7; WST-1, 24 h, mean ± SD (n = 6–8); read-out: IC50 inhibition of MCF-7 cells' viability
Description: (§1) The viability of MCF-7 and MDA-MB-231 cells was determined using a colorimetric WST-1 assay (Takara, Takara Bio Europe, Saint-Germain-en-Laye, France). Both cell lines were seeded at a density of 1 × 10^4 per well on 96-well plates and were cultured for 24 h to obtain 70% confluence. The following day, the cells were treated with various concentrations of compounds 1–9 diluted in the cell culture medium ([…]). The cells were incubated with tested compounds or pure medium (control) for 24 h (37 °C, 5% CO2). Afterwards, the cells were washed with 100 μL of culture medium, and then, the reagent dissolved in the medium was added (100 μL). The plates were incubated at the standard condition for 1.5 h, and the absorbance was read at 450 nm using a microplate reader (iMARK, Bio-Rad, Bio-Rad Laboratories Inc., Hercules, CA, USA). […] The results of samples treated with the test compounds were expressed as a percentage of the control samples. The data were presented as mean ± standard deviation (SD), n = 8. IC50 values (the concentration of the tested compound that inhibited cell growth by 50%) were calculated using a concentration-response curve (GraphPad Prism, Software, San Diego, CA, USA).
(§2) The concentrations contributing to the 50% of cell growth inhibition (IC50) were calculated using nonlinear regression analysis (fitting the curve to log (concentration) vs. cellular response).

MDA-MB-231 cells [2] = test: Cellular uptake of metformin sulfonamides in MDA-MB-231 cells (HPLC); format: in vitro ADME, human
Description: (§3) The uptake of metformin sulfonamides (1–9) in MCF-7 and MDA-MB-231 cells was studied by incubation of the cells with 10−3000 μmol/L of compounds in 250 μL of prewarmed HBSS buffer at 37 °C for 10 min. Subsequently, the cells were then washed three times with 500 μL of ice-cold HBSS and lysed with 250 μL of 0.1-M NaOH. The samples were collected, centrifuged (5 min, 1400 rpm) and the supernatants were analyzed by the HPLC method. The concentration of each compound in the cells was calculated on the basis of the standard curve prepared by spiking known amounts of every compound on the cell layers in 250 μL of 0.1-M NaOH.
(§4) The concentration of the studied sulfonamides (1–9) was assessed using the HPLC system, consisting of an Agilent 1100 binary pump (Agilent Technologies Inc., Wilmington, DE, USA), an 1100 micro-vacuum degasser, an HP 1050 autosampler and an HP 1050 variable wavelength detector (operated at 235 nm). The chromatographic separations of compounds 1–9 were conducted on an Agilent Zorbax SB-C18 analytical column (4.6 mm × 150 mm, 5 μm) using an isocratic elution of water containing 0.1% formic acid (pH ca. 3.0) and acetonitrile containing 0.1% formic acid with a changing ratio, depending on the compound. The analyses were conducted at room temperature (RT). The detailed procedure of chromatographic analysis was described in our previous paper. The studies were conducted in quadruplicates.
(§5) The protein concentrations in representative wells of each plate were assessed using a Bio-Rad protein assay according to the Bradford method (EnVision, PerkinElmer, Inc., Waltham, MA, USA).

MDA-MB-231 cells [3] = test: Cell viability WST-1 assay, MDA-MB-231; format: cell-based; conditions: Homo sapiens, MDA-MB-231, 24 h, 3000 µmol/L, WST-1, 24 h; read-out: percentage of viability of MDA-MB-231 cells
Description: as §1, §2

MCF-7 cells [4] = test: Uptake in the presence of OCT and MATE inhibitors, MCF-7 cells; format: in vitro ADME, human; conditions: summary from uptake with inhibitors
Description: (§6) The uptake of sulfonamide derivatives of metformin (1–9) in MCF-7 and MDA-MB-231 cells was studied also in the presence of disopyramide, cimetidine (OCT1 and 3 inhibitors), lopinavir (OCT and PMAT inhibitor) and methenamine (MATE and OCT2 inhibitors). The cells were incubated (37 °C, 10 min) with compounds 1–9 at concentrations of 400 and 800 μmol/L and inhibitors (disopyramide, cimetidine, lopinavir or methenamine) in 250 μL of prewarmed HBSS buffer. The protocol of determination of the compound concentration was as described above.

MDA-MB-231 cells [5] = test: Uptake in the presence of OCT and MATE inhibitors, MDA-MB-231 cells; format: in vitro ADME, human; conditions: summary from uptake with inhibitors
Description: as §6

MCF-7 cells [6] = test: Cellular uptake of metformin sulfonamides in MCF-7 cells (HPLC); format: in vitro ADME, human
Description: as §3, §4, §5

OCTs [7] = test: Inhibition of [14C]choline uptake in MDA-MB-231 cells (competitive inhibition assay); format: cell-based, human; conditions: for IC50: mean ± SD (n = 3)
Description: (§7) The following day, after removal of the culture medium, the cells were carefully washed with prewarmed HBSS (Hanks’ balanced salt solution) containing 125 mM NaCl, 4.8 mM KCl, 1.2 mM MgSO4, 1.2 mM KH2PO4, 1.3 mM CaCl2, 5.6 mM glucose and 25 mM HEPES (pH 7.4). […] Then, the cells were washed three times with ice-cold HBSS (500 μL) and were lysed with 250 μL of 0.1-M NaOH in the ice bath, and the lysate was mixed with 1.0 mL of an emulsifier safe cocktail (PerkinElmer, Waltham, MA, USA). The radioactivity was measured by liquid scintillation counting (MicroBeta^2 counter, PerkinElmer, Waltham, MA, USA). The studies were carried out with the use of at least three replicates from the same cell passage.

OCTs [8] = test: Inhibition of [14C]choline uptake in MCF-7 cells (competitive inhibition assay); format: cell-based, human; conditions: for IC50: mean ± SD (n = 3)
Description: as §7

MDA-MB-231 cells [9] = tested on: MDA-MB-231 cells; design: method as in PMID 30913467; conditions: up to 3000 µmol/L; cited from earlier work
OCT3-BT20 cells = tested on: OCT3-BT20 cells; design: method as in PMID 26669511; conditions: OCT3-overexpressing BT-20 vs BT-20; cited from earlier work
MCF-7 cells [10] = tested on: MCF-7 cells; design: method as in PMID 30913467; conditions: up to 3000 µmol/L; cited from earlier work
MCF-7 cells [11] = conditions: metformin, cited from earlier work
MDA-MB-231 cells [12] = conditions: metformin, cited from earlier work
[13] = Eadie-Hofstee analysis, transporter I
[14] = Eadie-Hofstee analysis, transporter I, read-out: Km, transporter I, MDA-MB-231
[15] = Eadie-Hofstee analysis, transporter II
[16] = Eadie-Hofstee analysis, transporter II, read-out: Km, transporter II, MDA-MB-231
[17] = 800 μmol/L, 10 min incubation, 37 °C
[18] = reported previously, ref Markowicz-Piasecka et al., 2019

| IC50 (MCF-7 cells [1]) [µM] | interactions with OCT, PMAT and MATE1 transporters, MCF-7 (MCF-7 cells [4]) | interactions with OCT, PMAT and MATE1 transporters, MDA-MB-231 (MDA-MB-231 cells [5]) | IC50 (OCTs [7]) [µM] | IC50 (OCTs [8]) [µM] | SMILES | Vmax, transporter I, MDA-MB-231 (MDA-MB-231 cells [2]; [13]) [nmol/min/mg] | Km (MDA-MB-231 cells [2]; [14]) [mM] | Vmax, transporter II, MDA-MB-231 (MDA-MB-231 cells [2]; [15]) [nmol/min/mg] | Km (MDA-MB-231 cells [2]; [16]) [mM] | viability at 3000 µM (MDA-MB-231 cells [3]) [%] | also measured |
| --- | --- | --- | --- | --- | --- | --- | --- | --- | --- | --- | --- |
| 171 ± 13.6 | OCT1 | OCT1, OCT3 | 2284 ± 14 | 7195 ± 5.3 | CN(C)C(=N)N=C(N)NS(=O)(=O)c1cccc(F)c1 [Compound 8] | 0.049 ± 0.025 | 1.23 ± 1.31 | 0.045 ± 0.021 | 3.38 ± 2.13 | ~60 | Vmax MDA-231 cells (Michaelis Menten curves) (MDA-MB-231 cells [2]; Michaelis-Menten curve): 0.126 ± 0.032 nmol/min/mg; Km (MDA-MB-231 cells [2]; Michaelis-Menten curve, read-out: Km MDA-231 cells (Michaelis Menten curves)): 7.4 ± 0.51 mM; transport efficacy (Vmax/Km) in MCF-7 relative to MDA-MB-231 (MDA-MB-231 cells [2]; fold lower in MDA-MB-231 than in MCF-7): approximately 22 fold; Vmax, transporter I, MCF-7 (MCF-7 cells [6]; [13]): 0.830 ± 0.171 nmol/min/mg; Km (MCF-7 cells [6]; Eadie-Hofstee analysis, transporter I, read-out: Km, transporter I, MCF-7): 2.84 ± 0.778 mM; uptake into MCF-7 cells at higher concentrations (MCF-7 cells [6]; concentrations above 1600 μmol/L): 8–10 nmol/min/mg of protein |
| 422 ± 32.8 | PMAT | OCT1, OCT3 | 1380 ± 14 | 1057 ± 7.5 | CN(C)C(=N)N=C(N)NS(=O)(=O)c1ccc(F)cc1 [Compound 9] | 0.097 ± 0.015 | 1.88 ± 0.429 | 0.053 ± 0.012 | 2.22 ± 0.618 | ~60 | uptake into MDA-MB-231 cells (MDA-MB-231 cells [2]; [17]): 0.021 ± 0.002 nmol/min/mg protein; uptake into MCF-7 cells (MCF-7 cells [6]; [17]): 0.357 ± 0.112 nmol/min/mg protein |
| – | – | – | – | – | CN(C)C(=N)N=C(N)N [Metformin] | – | – | – | – | – | effect on MDA-MB-231 growth (MDA-MB-231 cells [9]): did not significantly affect; metformin uptake in OCT3-BT20 cells relative to BT-20 cells (OCT3-BT20 cells): more than 13 fold; maximal inhibition of [14C] choline uptake (OCTs [7]; 2400 μmol/L): 29.9%; effect on MCF-7 growth (MCF-7 cells [10]): did not significantly affect; Vmax MCF-7 (Michaelis Menten curves) (MCF-7 cells [11]; [18]): 0.801 ± 0.296 nmol/min/mg; Km (MCF-7 cells [11]; reported previously, ref Markowicz-Piasecka et al., 2019, read-out: Km MCF-7 (Michaelis Menten curves)): 5.58 ± 1.56 mM; uptake into MCF-7 cells (MCF-7 cells [11]): 0.107 ± 0.006 nmol/min/mg of proteins; Vmax MDA-231 cells (Michaelis Menten curves) (MDA-MB-231 cells [12]; [18]): 0.718 ± 0.181 nmol/min/mg; Km (MDA-MB-231 cells [12]; reported previously, ref Markowicz-Piasecka et al., 2019, read-out: Km MDA-231 cells (Michaelis Menten curves)): 3.38 ± 0.952 mM; uptake into MDA-MB-231 cells (MDA-MB-231 cells [12]): 0.117 ± 0.010 nmol/min/mg of proteins; maximal inhibition of [14C] choline uptake (OCTs [8]; 2400 μmol/L): 34.3% |
